This is an account of results in US20160355457A1, “Solid Forms Comprising(-)-O-Desmethylvenlafaxine And Uses Thereof” (Sunovion Pharmaceuticals Inc., priority 2007, published 2016).

A short description of data set [1]: Moisture sorption/desorption (dynamic vapor sorption). In kind it is physicochemical. The protocol:
Moisture sorption/desorption data were collected on a VTI SGA-100 Vapor Sorption Analyzer. Sorption and desorption data were collected over a range of 5% to 95% relative humidity (RH) at 10% RH intervals under a nitrogen purge. For some samples, a step at 90% RH was added to the sorption cycle. Samples were not dried prior to analysis. Equilibrium criteria used for analysis were less than 0.0100% weight change in 5 minutes, with a maximum equilibration time of 3 hours if the weight criterion was not met. Data were not corrected for the initial moisture content of the samples. NaCl and PVP were used as calibration standards.

Data set [2] can be described thus: Stability properties of the solid form. In kind it is physicochemical.
[3] abbreviates: decreased from 95% to 5% relative humidity.
The mark [4] stands for this setting: increased from 5% to 95% relative humidity.

A value given as a limit tells only on which side of the number the result lay.

For `CN(C)C[C@@H](c1ccc(O)cc1)C1(O)CCCCC1.Cl` [Form E, monohydrochloride salt of (−)-O-desmethylvenlafaxine], in data set [1] (setting [3]), the “loss in mass on decreasing relative humidity (dynamic vapor sorption)” value was “about 5.8%”. The “gain in mass on increasing relative humidity (dynamic vapor sorption)” value in data set [1] (setting [4]) is listed as “about 4.7%”.

With `CN(C)C[C@@H](c1ccc(O)cc1)C1(O)CCCCC1.Cl` [Form F, monohydrochloride salt of (−)-O-desmethylvenlafaxine], the “loss in mass on decreasing relative humidity (dynamic vapor sorption)” value in data set [1] (setting [3]) is given as “about 33%”. For the same compound, in data set [1] (setting [4]), the “gain in mass on increasing relative humidity (dynamic vapor sorption)” value is listed as “about 32%”.

In the case of `CN(C)C[C@@H](c1ccc(O)cc1)C1(O)CCCCC1.Cl` [Form C, monohydrochloride salt of (−)-O-desmethylvenlafaxine], the “loss in mass on decreasing relative humidity (dynamic vapor sorption)” value in data set [1] (setting [3]) is recorded as “about 27%”. In addition, in data set [1] (setting [4]), the “gain in mass on increasing relative humidity (dynamic vapor sorption)” value is “about 27%”.

Turning to `CN(C)C[C@@H](c1ccc(O)cc1)C1(O)CCCCC1.Cl` [Form A, (−)-1-[2-(dimethylamino)-1-(4-hydroxyphenyl)ethyl]cyclohexanol hydrochloride salt], in data set [1] (decreased from 90% to 5% relative humidity), the “loss in mass on decreasing relative humidity (dynamic vapor sorption)” value is “about 1%”. For the same compound, the “gain in mass on increasing relative humidity (dynamic vapor sorption)” value in data set [1] (increased from 5% to 90% relative humidity, hydrochloride salt) is below 1%. The stability properties entry in data set [2] is recorded as “excellent stability properties”.

On to `CN(C)C[C@@H](c1ccc(O)cc1)C1(O)CCCCC1.Cl` [amorphous form, (−)-1-[2-(dimethylamino)-1-(4-hydroxyphenyl)ethyl]cyclohexanol monohydrochloride salt], for which the “loss in mass on decreasing relative humidity (dynamic vapor sorption)” value in data set [1] (decreased from 95% to 5% relative humidity, monohydrochloride salt) is listed as “about 32%”. The “gain in mass on increasing relative humidity (dynamic vapor sorption)” value in data set [1] (increased from 5% to 95% relative humidity, monohydrochloride salt) is “about 36%”.

Take `CN(C)C[C@@H](c1ccc(O)cc1)C1(O)CCCCC1.Cl` [Form G, monohydrochloride salt of (−)-O-desmethylvenlafaxine]: in data set [1] (setting [3]), the “loss in mass on decreasing relative humidity (dynamic vapor sorption)” value was “about 22%”. Also, the “gain in mass on increasing relative humidity (dynamic vapor sorption)” value in data set [1] (increased from 5% to 90% relative humidity) is given as “about 3%”; in data set [1] (setting [4]), “about 23%”.

Turning to `CN(C)C[C@@H](c1ccc(O)cc1)C1(O)CCCCC1.Cl` [Form B, monohydrochloride salt of (−)-O-desmethylvenlafaxine], the “loss in mass on decreasing relative humidity (dynamic vapor sorption)” value in data set [1] (setting [3]) is “about 26%”. Moreover, the “gain in mass on increasing relative humidity (dynamic vapor sorption)” value in data set [1] (setting [4]) was “about 25%”.
